Measured values published in patent US20210284618A1, “FURANOCHALCONES AS INHIBITORS OF CYP1A1, CYP1A2 AND CYP1B1 FOR CANCER CHEMOPREVENTION” (Council of Scientific & Industrial Research, priority 2016, published 2021).

How the values were obtained:
CYP1B1 [1] = molecular target: T1, CYP1B1 (Homo sapiens, UniProt Q16678); assay: In-vitro CYP450 1B1 enzyme inhibition in Saccharosomes; type: biochemical; design: purchased CYP Design Ltd; host or cells: yeast microsomes (Saccharosomes); conditions: human, Saccharosomes (yeast-derived) with recombinant CYP1B1, probe 7-ethoxyresorufin (5 μl of 0.1 mM), % inhibition of CYP1B1 in Saccharosomes at 10 μM, 10 μM test compound, 7-ethoxyresorufin
T1 sequence (Q16678 1-543): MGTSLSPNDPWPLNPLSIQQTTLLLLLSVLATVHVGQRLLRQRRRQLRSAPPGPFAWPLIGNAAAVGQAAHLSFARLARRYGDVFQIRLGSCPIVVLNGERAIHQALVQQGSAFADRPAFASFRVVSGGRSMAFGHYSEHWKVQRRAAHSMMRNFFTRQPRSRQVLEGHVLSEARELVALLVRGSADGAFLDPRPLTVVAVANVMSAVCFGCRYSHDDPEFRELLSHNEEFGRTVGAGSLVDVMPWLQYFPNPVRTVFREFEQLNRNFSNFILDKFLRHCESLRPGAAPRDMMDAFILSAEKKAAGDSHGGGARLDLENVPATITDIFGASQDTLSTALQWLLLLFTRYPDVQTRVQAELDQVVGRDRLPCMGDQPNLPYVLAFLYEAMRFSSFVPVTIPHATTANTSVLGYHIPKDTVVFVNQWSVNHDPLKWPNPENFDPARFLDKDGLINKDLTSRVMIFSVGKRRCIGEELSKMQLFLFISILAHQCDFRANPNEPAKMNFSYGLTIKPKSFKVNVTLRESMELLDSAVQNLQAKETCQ
Protocol: Example 24. In-vitro CYP450 1B1 enzyme inhibition in Saccharosomes™: Regenerating system consists of: 5 μl Solution A (183 mg of NADP++183 mg of glucose-6-phosphate+654 μl of 1.0 M magnesium chloride solution+9.15 ml of sterile ultra-pure water)+1 μl Solution B (250 Units of glucose-6-phosphate dehydrogenase+6.25 ml of 5 mM sodium citrate; mixed in a tube and made up to 10 ml with sterile ultra-pure water)+39 μl 0.2 M Kpi (0.6 ml of 1.0M K2HPO4+9.4 ml of 1.0 M KH2PO4 were mixed and made up to 50 ml with sterile ultra-pure water)+5 μl potential inhibitory compound.
(§1) Example 25. IC50 determination for best compound against CYP1A1, CYP1B1 and other CYPs in Saccharosomes. Compounds were serially diluted to six different concentrations with 10% DMSO in a Sero-Well white microplate. The experiment was performed in a similar way as described above in examples 23 and 24.

CYP1A1 [2] = molecular target: T2, CYP1A1 (Homo sapiens, UniProt P04798); assay: In-vitro CYP450 1A1 enzyme inhibition in Saccharosomes; type: biochemical; conditions: human, Saccharosomes containing CYP1A1, pH 7.4, probe ethoxyresorufin (5 μM), % inhibition of CYP1A1 in Saccharosomes at 10 μM, 10 μM test compound, 5 μM ethoxyresorufin
T2 construct: host or cells: yeast microsomes (Saccharosomes)
T2 sequence (P04798 1-512): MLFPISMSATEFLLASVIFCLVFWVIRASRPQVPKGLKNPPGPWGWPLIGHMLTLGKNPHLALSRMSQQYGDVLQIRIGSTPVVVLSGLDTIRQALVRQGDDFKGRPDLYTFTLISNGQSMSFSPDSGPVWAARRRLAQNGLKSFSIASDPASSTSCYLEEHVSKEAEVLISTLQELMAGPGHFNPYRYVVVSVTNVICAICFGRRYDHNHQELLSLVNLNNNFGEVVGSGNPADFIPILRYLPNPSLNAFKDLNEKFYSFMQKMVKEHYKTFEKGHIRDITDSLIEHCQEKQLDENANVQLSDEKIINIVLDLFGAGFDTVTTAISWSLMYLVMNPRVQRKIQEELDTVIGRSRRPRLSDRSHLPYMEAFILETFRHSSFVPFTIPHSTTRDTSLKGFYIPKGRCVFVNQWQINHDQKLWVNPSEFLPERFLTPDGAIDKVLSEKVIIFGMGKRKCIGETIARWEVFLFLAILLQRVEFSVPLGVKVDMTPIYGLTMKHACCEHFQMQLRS
Protocol: Example 23. In-vitro CYP450 1A1 enzyme inhibition in Saccharosomes™: The screening method utilizes 384-well microplates to rapidly ascertain relative percentage inhibition of CYP1A1 by a library of compounds. Each reaction was performed in black, clear-bottomed 384-well microplates. A reaction volume of 50 μl comprised of 0.5 pmol of the cytochrome P450 CYP1A1 (Saccharosomes), 5 μM of ethoxyresorufin substrate (which contributes 0.05% DMSO to the well), 10 μM of potential inhibitor test article (which contributes 0.5% DMSO to the well), A P450 reductase NADPH regenerating system (1.3 mM NADP+, 3.3 mM glucose-6-0.02 units phosphate and glucose-6-Phosphate dehydrogenase), potassium phosphate buffer (final well concentration 100 mM, pH 7.4) and water. Very small quantities of magnesium chloride and sodium citrate are added to the NADPH regenerating system, in line with standard published protocols. The potential inhibitor (test article) was pre-incubated with CYP1A1 of at least 20 minutes at 30° C. After this period, the remainder of the reagents required in the assay was added to initiate the process. The reaction mixture was incubated for another 20 minutes at 30° C. The reaction was stopped by adding an 80% acetonitrile, 20% 0.5 M Tris solution. The reactions were monitored using the Biotek Synergy HT plate reader by measuring the endpoint reaction at Excitation 530/(25 bandwidth) & Emission 590/(20 bandwidth) using a gain/sensitivity setting of 60. The mean of the quadruplicates of the negative control (solvent inactivated CYP1A1) was deducted from the mean of potential inhibitor (test article) samples. The percentage was then derived relative to the mean of the wells without inhibitor.
as §1

CYP1B1 [3] = molecular target: T1, CYP1B1; assay: CYP1B1 inhibition in live human cells (HEK293); type: cell-based
CYP1A1 [4] = molecular target: T2, CYP1A1; assay: CYP1A1 inhibition in HEK293 cells transfected with pcDNA3.1/CYP1A1 (live cells); type: cell-based; conditions: for inhibition at 10 μM: human, HEK293 cells transfected with pcDNA3.1/CYP1A1 (live cells), probe EROD (5 μM), % inhibition of CYP1A1 in HEK293 cells at 10 μM, 5 μM EROD
Protocol: Example 26. In-vitro CYP450 inhibition in HEK293 cells transfected with pcDNA3.1/CYP1A1 against 5 μM EROD. […] The HEK293 cells used here was procured from ‘European Collection of Authenticated Cell Cultures’ (catalog number. ECACC 85120602).

Row | inhibition at 10 μM (CYP1B1 [1]) [%] | inhibition at 20 min, 10 μM (CYP1A1 [2]) [%] | IC50 (CYP1B1 [3]) [nM] | IC50 (CYP1A1 [4]) [nM] | inhibition at 10 μM (CYP1A1 [4]) [%] | melting point [°C] | SMILES
1 | 49.5 | > 80 | 1320 | 480 | 79.6 |  | COc1c(C(=O)/C=C/c2ccc(F)cc2)c(O)c(OC)c2occc12 [Compound 6, 3-(4,7-dimethoxy-6-hydroxybenzofuran-5-yl)-1-(4-fluorophenyl)-3-oxopropene]
2 |  | 64.3 |  |  | 31.7 | 260 to 261 | CCOc1ccc(Br)cc1/C=C/C(=O)c1c(O)c(OC)c2occc2c1OC [Compound 11, 3-(4,7-dimethoxy-6-hydroxybenzofuran-5-yl)-1-(2-ethoxy,5-bromophenyl)-3-oxopropene]
3 |  | 23.6 |  |  | 19.5 | 160 to 161 | COc1c(C(=O)/C=C/c2ccccc2Cl)c(O)c(OC)c2occc12 [Compound 12, 3-(4,7-dimethoxy-6-hydroxybenzofuran-5-yl)-1-(2-chlorophenyl)-3-oxopropene]
4 |  | 21.9 |  |  | 71.6 | 300 to 301 | COc1c(C(=O)/C=C/c2c(F)c(F)c(F)c(F)c2F)c(O)c(OC)c2occc12 [Compound 15, 3-(4,7-dimethoxy-6-hydroxybenzofuran-5-yl)-1-(2,3,4,5,6 pentafluorophenyl)-3-oxopropene]
